How the values were obtained:
[1] = molecular target: Recombinant human JAK1 catalytic domain (Homo sapiens (Human), UniProt P23458); test: JAK1 inhibition assay; type: biochemical; conditions: semi-quantitative score
Summary of the method: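 Radiometric assay read by scintillation counting after phosphoric-acid washes. Percent inhibition calculated from cpm relative to vehicle and 10 μM staurosporine control. IC50 derived from compound dose-dilution series.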

[2] = molecular target: Recombinant human JAK2 catalytic domain (Homo sapiens (Human), UniProt O60674); test: JAK2 inhibition assay; type: biochemical; conditions: semi-quantitative score
Summary of the method: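 Radiometric kinase reactions ran for 90 min at 30 °C and were stopped with phosphoric acid, then washed and counted by scintillation. Percent inhibition was set relative to vehicle and to 10 μM staurosporine background. IC50 was derived from dose-dilution series.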

[3] = molecular target: Recombinant human JAK3 catalytic domain (Homo sapiens (Human), UniProt P52333); test: JAK3 inhibition assay; type: biochemical; conditions: semi-quantitative score
Procedure: Plates were washed 6 times with 300 μL per well of a 75 mM phosphoric acid solution and the bottom of the plates was sealed. 40 μL/well of Microscint-20 was added, the top of the plates was sealed and readout was performed using the Topcount (Perkin Elmer). Kinase activity was calculated by subtracting counts per minute (cpm) obtained in the presence of a positive control inhibitor (10 μM staurosporine) from cpm obtained in the presence of vehicle. The ability of a test compound to inhibit this activity was determined as: Percentage inhibition=((cpm determined for sample with test compound present−cpm determined for sample with positive control inhibitor) divided by (cpm determined in the presence of vehicle−cpm determined for sample with positive control inhibitor))*100%.
Dose dilution series were prepared for the compounds enabling the testing of dose-response effects in the JAK3 assay and the calculation of the IC50 for each compound.

[4] = test system: JAK-STAT signalling in HeLa cells; test: JAK-STAT signalling assay (OSM-triggered pSTAT1(2)-luciferase reporter in HeLa cells); type: cell-based; conditions: Homo sapiens; HeLa cells, OSM-triggered pSTAT1(2)-luciferase reporter; read-out: STAT signalling EC50
Summary of the method: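 HeLa cells transiently transfected with pSTAT1(2)-luciferase reporter plus LacZ internal control, incubated overnight at 37 °C, 10% CO2, then OSM-stimulated with compound. Luciferase read by Steadylite luminescence and normalised to β-galactosidase (ONPG); percent inhibition from controls, EC50 from dose-response.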

MMP13 in SW1353 cells = test: OSM/IL-1β signaling assay (MMP13 levels in SW1353 cells); type: cell-based; conditions: Homo sapiens; SW1353 cells, OSM and IL-1β triggered, MMP13 levels 48 hours after triggering; read-out: MMP13 EC50;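 further: secreted MMP13 captured by antibody, activated with APMA and its activity read by fluorescence, inhibition scaled between vehicle-treated triggered wells (0%) and untriggered wells (100%)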
[5] = Microsomal stability, human liver microsomes; type: in vitro ADME; conditions: percentage of compound remaining after 60 minutes, 3 μM compound
Summary of the method: (§1)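 Compound was incubated with liver microsomes plus an NADP+/glucose-6-phosphate/G6PDH/MgCl2 regenerating system at 37°C for 1 h. Reactions were stopped 1:1 with MeOH or ACN and analysed by LCMS.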

[6] = Microsomal stability, rat liver microsomes; type: in vitro ADME; conditions: percentage of compound remaining after 60 minutes, 3 μM compound
Summary of the method: as §1

[7] = Caco2 permeability (bi-directional); type: in vitro ADME, human; conditions: human, pH 7.4; for Papp A→B at 1 h, 10 µM: Caco-2, apical to basolateral, read-out: Papp (A2B); for efflux ratio at 1 h, 10 µM: Caco-2, ratio of PappB>A/PappA>B
Summary of the method: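 Bidirectional transport across Caco-2 monolayers was run for 1 h at 37 °C with shaking, with 50 μM Lucifer Yellow in the donor to check monolayer integrity (acceptance ≤100 nm/s). Apical and basal compound levels were measured by LC-MS/MS, and efflux ratio was taken as PappB>A/PappA>B.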

Recombinant human JAK3 catalytic domain, sequence (P52333 781-1124): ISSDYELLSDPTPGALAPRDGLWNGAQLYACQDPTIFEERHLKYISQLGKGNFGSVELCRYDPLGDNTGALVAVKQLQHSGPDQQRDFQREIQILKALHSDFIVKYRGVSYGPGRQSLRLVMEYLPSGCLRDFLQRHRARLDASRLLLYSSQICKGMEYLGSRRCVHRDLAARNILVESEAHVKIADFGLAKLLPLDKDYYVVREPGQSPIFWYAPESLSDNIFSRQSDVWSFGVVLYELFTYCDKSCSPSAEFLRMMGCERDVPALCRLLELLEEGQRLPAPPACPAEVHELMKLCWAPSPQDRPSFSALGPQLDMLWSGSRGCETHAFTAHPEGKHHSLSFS
Recombinant human JAK2 catalytic domain, sequence (O60674 808-1132): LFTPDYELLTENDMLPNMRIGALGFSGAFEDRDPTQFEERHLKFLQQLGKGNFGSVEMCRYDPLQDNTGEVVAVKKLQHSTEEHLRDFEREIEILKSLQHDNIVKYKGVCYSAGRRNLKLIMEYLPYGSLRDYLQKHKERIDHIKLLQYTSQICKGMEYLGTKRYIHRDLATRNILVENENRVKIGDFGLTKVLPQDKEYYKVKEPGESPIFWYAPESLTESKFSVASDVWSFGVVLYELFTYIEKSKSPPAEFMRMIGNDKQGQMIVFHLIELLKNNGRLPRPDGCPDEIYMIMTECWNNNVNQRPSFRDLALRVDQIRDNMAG
Recombinant human JAK1 catalytic domain, sequence (P23458 850-1154): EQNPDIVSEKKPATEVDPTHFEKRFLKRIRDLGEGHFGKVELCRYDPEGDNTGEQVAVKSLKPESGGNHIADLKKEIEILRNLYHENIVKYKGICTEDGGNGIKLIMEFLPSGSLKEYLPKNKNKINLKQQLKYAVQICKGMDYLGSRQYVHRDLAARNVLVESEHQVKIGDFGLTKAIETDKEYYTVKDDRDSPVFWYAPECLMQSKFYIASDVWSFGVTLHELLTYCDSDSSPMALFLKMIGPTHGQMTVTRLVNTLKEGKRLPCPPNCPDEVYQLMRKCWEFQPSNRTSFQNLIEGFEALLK

SMILES	IC50 [1] [nM]	IC50 [2] [nM]	IC50 [3] [nM]	EC50 [4] [nM]	EC50 (MMP13 in SW1353 cells) [nM]	Microsomal Stability Human (%) [5]	Microsomal Stability Rat (%) [6]	Papp A→B at 1 h, 10 µM [7] [×10⁻⁶ cm/s]	efflux ratio at 1 h, 10 µM [7]
O=C(Nc1nc2cccc(-c3ccc(NS(=O)(=O)CCc4ccccc4)cc3)n2n1)C1CC1 [Compound 76, N-(5-(4-(2-phenylethylsulfonamido)phenyl)-[1,2,4]triazolo[1,5-a]pyridin-2-yl)cyclopropanecarboxamide]	< 100	< 100	101 to 500	501 to 1000	1 to 500	* (* 0-25)	* (* 0-25)	8.14	5.09
O=C(Nc1nc2cccc(-c3ccc(OCc4ccc(C(F)(F)F)nc4)cc3)n2n1)C1CC1 [Compound 78, N-(5-(4-((6-(trifluoromethyl)pyridin-3-yl)methoxy)phenyl)-[1,2,4]triazolo[1,5-a]pyridin-2-yl)cyclopropanecarboxamide]	< 100	< 100	101 to 500	> 1000	501 to 1000	**** (**** 76-100)	**** (**** 76-100)		1.5
O=C(NCCc1ccccc1)c1ccc(-c2cccc3nc(NC(=O)C4CC4)nn23)cc1 [Compound 87, 4-(2-(cyclopropanecarboxamido)-[1,2,4]triazolo[1,5-a]pyridin-5-yl)-N-phenethylbenzamide]	< 100	< 100	101 to 500	101 to 500	501 to 1000	* (* 0-25)	* (* 0-25)	20.9	1.81
CN(CCc1ccccc1)C(=O)c1ccc(-c2cccc3nc(NC(=O)C4CC4)nn23)cc1 [Compound 96, 4-(2-(cyclopropanecarboxamido)-[1,2,4]triazolo[1,5-a]pyridin-5-yl)-N-methyl-N-phenethylbenzamide]	< 100	< 100	> 1000	> 1000	> 1000	* (* 0-25)	* (* 0-25)	34.6	1
O=C(NCCc1ccc(C(F)(F)F)cc1)c1ccc(-c2cccc3nc(NC(=O)C4CC4)nn23)cc1 [Compound 97, 4-(2-(cyclopropanecarboxamido)-[1,2,4]triazolo[1,5-a]pyridin-5-yl)-N-(4-(trifluoromethyl)phenethyl) benzamide]	< 100	< 100	101 to 500	101 to 500	501 to 1000	* (* 0-25)	** (** 26-50)	23.8	2.61
O=C(Nc1nc2cccc(-c3ccc(OCc4ncon4)cc3)n2n1)C1CC1 [Compound 99, N-(5-(4-((1,2,4-oxadiazol-3-yl)methoxy)phenyl)-[1,2,4]triazolo[1,5-a]pyridin-2-yl)cyclopropanecarboxamide]	< 100	< 100	101 to 500	101 to 500	1 to 500	** (** 26-50)	* (* 0-25)	38.9	0.81
O=C(NCCOc1ccccc1)c1ccc(-c2cccc3nc(NC(=O)C4CC4)nn23)c(F)c1 [Compound 100, 4-(2-(cyclopropanecarboxamido)-[1,2,4]triazolo[1,5-a]pyridin-5-yl)-3-fluoro-N-(2-phenoxyethyl)benzamide]	< 100	< 100	> 1000	> 1000	> 1000	* (* 0-25)	* (* 0-25)	11.8	3.23
O=C(Nc1nc2cccc(-c3ccc(NCc4ccccc4)nc3)n2n1)C1CC1 [Compound 104, N-(5-(6-(benzylamino)pyridin-3-yl)-[1,2,4]triazolo[1,5-a]pyridin-2-yl)cyclopropanecarboxamide]	< 100	101 to 500	> 1000	> 1000	> 1000	* (* 0-25)	* (* 0-25)	28	0.9
O=C(Nc1nc2cccc(-c3cnn(Cc4ccccc4)c3)n2n1)C1CC1 [Compound 107, N-(5-(1-benzyl-1H-pyrazol-4-yl)-[1,2,4]triazolo[1,5-a]pyridin-2-yl)cyclopropanecarboxamide]	< 100	< 100	> 1000	> 1000	> 1000	* (* 0-25)	* (* 0-25)	24.1	1.05
O=C(CCOc1ccccc1)Nc1ccc(-c2cccc3nc(NC(=O)C4CC4)nn23)cc1 [Compound 108]	< 100	< 100	> 1000	501 to 1000	501 to 1000	* (* 0-25)	* (* 0-25)	27.7	1.4
O=C(Nc1nc2cccc(-c3ccc(CN4CCC(F)(F)CC4)cc3)n2n1)C1CC1 [Compound 234, Cyclopropanecarboxylic acid {5-[4-(4,4-difluoro-piperidin-1-ylmethyl)-phenyl]-[1,2,4]triazolo[1,5-a]pyridin-2-yl}-amide]	< 100	< 100	101 to 500	501 to 1000	1 to 500	** (** 26-50)	** (** 26-50)	36.5	0.9
O=C(Nc1nc2cccc(-c3ccc(CN4CCC(C(F)(F)F)CC4)cc3)n2n1)C1CC1 [Compound 240, Cyclopropanecarboxylic acid {5-[4-(4-trifluoromethyl-piperidin-1-ylmethyl)-phenyl]-[1,2,4]triazolo[1,5-a]pyridin-2-yl}-amide]	< 100	< 100	501 to 1000	101 to 500	> 1000	** (** 26-50)	*** (*** 51-75)	29.6	1.3
